These are literature values, as cited in patent US20050113573A1, “Nitroso compounds to treat ischemia” (priority 2003, published 2005).

Data set [1] relates to intimal proliferation and platelet deposition. The settings on record: rabbits, local administration, after vascular arterial balloon injury.
The subject of the next data set is platelet adhesion. As to conditions: pigs.
Another data set deals with rabbit iliac arteries. As to conditions: rabbit iliac arteries after balloon angioplasty.
The subject of data set [2] is smooth muscle cell proliferation. As to conditions: pigs.
For data set [3] the following is noted: 700 stable coronary patients, treated before the angioplasty.
A further data set has as its system cerebral infarcts. The settings on record: versus vehicle treated animals.
The test system of data set [4] is ischemically injured livers. The settings on record: severe ischemia/reperfusion.
A further data set concerns neointimal proliferation. As to conditions: rat.
The next data set concerns femoral arteries. As to conditions: hypercholesterolemic mice, prolonged treatment.

As to “S-nitroso-bovine serum albumin: protein adduct of nitric oxide, locally delivered”, the “intimal proliferation and platelet deposition” value in data set [1] was “inhibited intimal proliferation and platelet deposition”. Turning to `N=c1c[n+](N2CCOCC2)[n-]o1` [3-morpholino-sydnonimine], the “effect on platelet adhesion” value in the data set with platelet adhesion is reported as “antiadhesive effects”.

`CCOC(=O)[N-]c1cn(N2CCOCC2)n[o+]1` [molsidomine]: in the data set with rabbit iliac arteries, the neointimal area entry is on record as “significant reduction of the neointimal area”. Also, in [2], the “smooth muscle cell proliferation following balloon angioplasty” value is recorded as “inhibits smooth muscle cell proliferation following balloon angioplasty”. Also, in data set [3], the clinical outcome is “no effect on the clinical outcome” and the long-term angiographic result is given as “modest improvement in the long-term angiographic result”. Regarding `N=C(N)NCCC[C@H](N)C(=O)O` [L-arginine], the cerebral infarcts result with cerebral infarcts is reported as “smaller cerebral infarcts than those in vehicle treated animals”. The neointimal area entry in the data set on rabbit iliac arteries is on record as “significant reduction of the neointimal area”. Besides, the “liver function, neutrophil infiltration and animal survival after liver ischemia/reperfusion injury” value in data set [4] was “beneficial for the liver after severe ischemia/reperfusion”.

Regarding `CC(C(=O)OCCCCO[N+](=O)[O-])c1ccc(-c2ccccc2)c(F)c1` (stereo not shown) [HCT-1026], in the data set on neointimal proliferation, the neointimal proliferation result is “reduction in the neointimal proliferation” and the nitrite/nitrate plasma levels entry is on record as “increase in nitrite/nitrate plasma levels”. With “poly thiolated form of bovine serum albumin: poly thiolated form of bovine serum albumin modified to include several S-nitrosothiol groups”, the “intimal proliferation and platelet deposition” value in data set [1] is “inhibited intimal proliferation and platelet deposition”. As for `CC(=O)Oc1ccccc1C(=O)Oc1cccc(CO[N+](=O)[O-])c1` [nitric oxide releasing aspirin], the “vascular inflammation and apoptosis during vascular remodeling” value with femoral arteries was “reduced the vascular inflammation and promoted apoptosis”.
